Laboratory results: patent publication US11192889B2, “Tetrahydronaphthyridinepentanamide integrin antagonists” (The Rockefeller University, priority 2016, dated 2021)
Several values for one entry are separate records, joined by “and”; a condition that tells them apart may be missing. Equal entries are not always repeated.

Experiments:
Type in all cases: cell-based
[1] = system: HEK-293-αVβ3 cells; experiment: AP5 Binding Assay; settings: 10 mM EDTA; average±SD of 17 experiments
[2] = molecular target: T1, HEK-293-αVβ3 cells (Homo sapiens, UniProt P05106+P06756); experiment: αVβ3 Cell Adhesion to Fibrinogen Assay; design: IC50; other: dose reducing by 50% the adhesion of HEK-293-αVβ3 cells to fibrinogen; untreated cells 100% adhesion, 10 mM EDTA 0%; settings: dose reducing by 50% the adhesion of HEK-293-αVβ3 cells to fibrinogen; separate determinations listed
[3] = molecular target: T1, HEK-293-αVβ3 cells; experiment: AP5 Binding Assay; settings: for activation at 10 µM: relative to AP5 expression induced by cilengitide, read-out: AP5 expression induced at the highest concentration; for EC50: concentration inducing 50% of the AP5 expression induced by 1 μM cilengitide

T1 sequence (P05106 whole entry): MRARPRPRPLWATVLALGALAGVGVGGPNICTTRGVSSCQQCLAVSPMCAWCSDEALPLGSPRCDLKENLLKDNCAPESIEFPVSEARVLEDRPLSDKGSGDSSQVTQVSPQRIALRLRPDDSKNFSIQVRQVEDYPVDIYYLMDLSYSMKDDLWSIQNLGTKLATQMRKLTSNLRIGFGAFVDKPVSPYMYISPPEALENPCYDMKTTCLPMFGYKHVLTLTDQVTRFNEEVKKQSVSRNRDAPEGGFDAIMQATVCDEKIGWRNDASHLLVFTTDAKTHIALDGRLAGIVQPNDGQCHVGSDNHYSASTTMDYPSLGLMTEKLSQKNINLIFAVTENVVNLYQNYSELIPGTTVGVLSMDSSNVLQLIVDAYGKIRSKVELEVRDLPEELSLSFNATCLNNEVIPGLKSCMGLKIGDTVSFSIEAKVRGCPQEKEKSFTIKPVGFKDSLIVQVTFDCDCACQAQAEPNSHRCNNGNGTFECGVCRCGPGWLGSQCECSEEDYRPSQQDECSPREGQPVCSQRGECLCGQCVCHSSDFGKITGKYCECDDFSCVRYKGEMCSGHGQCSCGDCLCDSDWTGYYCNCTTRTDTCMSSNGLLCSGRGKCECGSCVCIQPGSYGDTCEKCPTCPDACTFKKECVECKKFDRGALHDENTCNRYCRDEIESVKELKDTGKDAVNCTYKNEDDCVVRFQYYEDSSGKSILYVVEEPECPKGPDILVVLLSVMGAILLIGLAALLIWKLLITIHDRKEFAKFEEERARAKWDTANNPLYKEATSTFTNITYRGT
T1 sequence (P06756 whole entry): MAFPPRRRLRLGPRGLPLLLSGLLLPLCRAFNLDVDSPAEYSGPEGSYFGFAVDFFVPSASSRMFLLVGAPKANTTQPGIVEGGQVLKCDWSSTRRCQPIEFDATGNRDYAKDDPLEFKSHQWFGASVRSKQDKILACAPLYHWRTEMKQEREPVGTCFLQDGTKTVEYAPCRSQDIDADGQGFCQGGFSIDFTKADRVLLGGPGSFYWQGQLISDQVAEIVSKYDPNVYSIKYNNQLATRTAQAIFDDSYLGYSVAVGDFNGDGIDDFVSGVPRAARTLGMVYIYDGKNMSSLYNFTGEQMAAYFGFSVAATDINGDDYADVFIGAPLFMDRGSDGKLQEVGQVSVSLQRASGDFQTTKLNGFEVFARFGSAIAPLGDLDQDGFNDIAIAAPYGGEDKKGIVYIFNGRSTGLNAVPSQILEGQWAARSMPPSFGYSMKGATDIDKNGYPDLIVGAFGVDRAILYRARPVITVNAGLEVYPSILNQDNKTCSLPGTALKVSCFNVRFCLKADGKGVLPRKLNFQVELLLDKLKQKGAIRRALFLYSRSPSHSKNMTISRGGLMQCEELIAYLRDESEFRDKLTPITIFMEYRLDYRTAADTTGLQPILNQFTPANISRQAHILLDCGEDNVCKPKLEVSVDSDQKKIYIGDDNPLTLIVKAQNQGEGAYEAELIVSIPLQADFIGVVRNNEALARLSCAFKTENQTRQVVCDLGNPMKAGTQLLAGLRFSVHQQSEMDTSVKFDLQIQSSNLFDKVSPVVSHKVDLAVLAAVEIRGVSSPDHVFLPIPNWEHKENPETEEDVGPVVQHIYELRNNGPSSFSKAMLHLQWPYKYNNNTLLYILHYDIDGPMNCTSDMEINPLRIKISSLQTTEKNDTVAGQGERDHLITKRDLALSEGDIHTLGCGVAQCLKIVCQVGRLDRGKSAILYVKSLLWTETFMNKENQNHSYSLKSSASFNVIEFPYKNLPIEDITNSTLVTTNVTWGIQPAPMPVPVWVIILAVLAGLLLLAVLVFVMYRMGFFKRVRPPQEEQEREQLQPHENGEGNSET

| Compound | IC50 [2] | activation at 10 µM [3] [%] | EC50 [3] [nM] | AP5 expression [1] |
| --- | --- | --- | --- | --- |
| O=C(O)CN(CCN(CC(=O)O)CC(=O)O)CC(=O)O [EDTA, reference compound] | – | – | – | 21.8±5.9 arbitrary fluorescence units |
| Cc1ccc(S(=O)(=O)NC(CCNC(=O)CCCCc2ccc3c(n2)NCCC3)C(=O)O)cc1 (stereo not shown) [Example 14, 2-(p-Tolylsulfonylamino)-4-[5-(5,6,7,8-tetrahydro-1,8-naphthyridin-2-yl)pentanoylamino]butanoic acid] | 6300 nM | 7 | > 10000 | – |
| CC(C)COC(=O)NC(CCNC(=O)CCCCc1ccc2c(n1)NCCC2)C(=O)O (stereo not shown) [Example 38, 2-(Isobutoxycarbonylamino)-4-[5-(5,6,7,8-tetrahydro-1,8-naphthyridin-2-yl)pentanoylamino]butanoic acid] | 343 nM and 416 nM | 20 | > 10000 | – |

Continued, in another order:

| IC50 [2] | activation at 10 µM [3] [%] | EC50 [3] [nM] | Compound | AP5 expression [1] |
| --- | --- | --- | --- | --- |
| 518 nM | 10 | > 10000 | O=C(CCCCc1ccc2c(n1)NCCC2)NCCC(C(=O)O)n1cnc(-c2ccccc2)n1 (stereo not shown) [Example 78, 2-(3-phenyl-1,2,4-triazol-1-yl)-4-[5-(5,6,7,8-tetrahydro-1,8-naphthyridin-2-yl)pentanoylamino]butanoic acid] | – |
| < 100 nM and 101 nM and 143 nM | 9 | > 10000 | O=C(CCCCc1ccc2c(n1)NCCC2)NCCC(Nc1ncc(-c2ccccc2)cn1)C(=O)O (stereo not shown) [Example 81, 2-[(5-phenylpyrimidin-2-yl)amino]-4-[5-(5,6,7,8-tetrahydro-1,8-naphthyridin-2-yl)pentanoylamino]butanoic acid] | – |
